Data published in US11959104B2, “Methods of differentiating stem cell-derived ectodermal lineage precursors” (MEMORIAL SLOAN-KETTERING CANCER CENTER, priority 2016, dated 2024).

Experiments:
[1] = tested on: human pluripotent stem cells; experiment: Neuroectoderm induction in E6 media, PAX6 positive cells (PAX6::H2B-GFP reporter); format: cell-based; settings: day 12 post induction, without small molecules ~40%
Procedure: H9 ESCs (WA09) and modified reporter lines (passage 40-70) were cultured in the Knockout Serum Replacement (KSR) (Life Technologies) based media (DMEM-F12, 20% KSR, L-glutamate and 10 ng/ml FGF2) on mouse embryonic fibroblast feeders. KSR hPSCs were directly transferred to the E8 media (Life Technologies) coated with Vitronectin and adapted for 4-5 passages before differentiations were performed. KSR based differentiations were performed as previously described, neuroectoderm and neural crest (Mica et al., 2013), and placode and non-neural ectoderm ([…] et al., 2013). All differentiations starting from E8 were dissociated into single cells using EDTA and replated at high density in E8 with the ROCK inhibitor (Tocris). Cells were typically seeded at a density of 200,000 cells/cm^2 on Matrigel coated dishes. Switching from E8 to E6 triggered differentiations (i.e. d0). Neuroectoderm (NE) formation was generated by culturing the cells in E6 with […] and 500 nM LDN until d12. Neural Crest (NC) was first treated with […], 600 nM CHIR and 1 ng/ml BMP4 from d0-d2. At d2, cells were maintained in […] with 1.5 uM CHIR until d12. Lens placode was first treated with […] and 5 ng/ml BMP4 from d0-d2. At d2, cells were maintained in […] with 100 ng/ml FGF2 until d12. Trigeminal placode was first treated with […] and 5 ng/ml BMP4 from d0-d2. […]

hPSCs = experiment: Toxicity of KSR-protocol small molecule concentrations in E6 differentiation; format: cell-based, human; settings: original KSR-protocol concentration used in E6
From the text: To transition these protocols into the more defined E6 media, we adapted hPSCs in E8 for multiple passages and simply replaced the KSR-based medium with an E6 based differentiation while maintaining factors and concentrations as described previously to trigger the 4 major ectodermal lineages (FIG. 9A). […] After determining an optimal non-toxic concentration for each of the small molecules we observed that NE formation under E6 conditions was equivalent to that obtained with KSR-based conditions. […] We compared the efficiency of generating PAX6 positive cells using either no small molecules, using dSMADi or using the single TGFβ inhibitor SB431542 (SB). We found robust PAX6 expression in the absence of dSMADi (˜40% of total cells on day 12 post induction). However, the percentage of cells expressing PAX6 was further improved upon addition of SB or dSMADi to nearly 90% and 80%, respectively (FIGS. 1E and 9B).

SIX1 placode cells = experiment: Trigeminal placode induction by Wnt activation pulse; format: cell-based, human; settings: additional pulse after the BMP pulse
Procedure: (§1) All differentiations starting from E8 were dissociated into single cells using EDTA and replated at high density in E8 with the ROCK inhibitor (Tocris). Cells were typically seeded at a density of 200,000 cells/cm^2 on Matrigel coated dishes. Switching from E8 to E6 triggered differentiations (i.e. d0). Neuroectoderm (NE) formation was generated by culturing the cells in E6 with […] and 500 nM LDN until d12. Neural Crest (NC) was first treated with […], 600 nM CHIR and 1 ng/ml BMP4 from d0-d2. At d2, cells were maintained in […] with 1.5 uM CHIR until d12. Lens placode was first treated with […] and 5 ng/ml BMP4 from d0-d2. At d2, cells were maintained in […] with 100 ng/ml FGF2 until d12. Trigeminal placode was first treated with […] and 5 ng/ml BMP4 from d0-d2. At d2, CHIR was added to the SB and BMP4 until d4. Finally, non-neural ectoderm (NNE) was treated with 10 nM SB, 10 nM SU5402 and 20 ng/ml BMP4 until d12.

rodent GSK3β homologs = settings: cited from earlier work
hPSC = experiment: Cranial placode induction in E6 media, SIX1 positive cells, FGF addition; format: cell-based, human; settings: added to E6 culture comprising SB431542 and BMP
Procedure: as §1

[2] = tested on: Six1::H2B-GFP reporter line; experiment: LOPAC small molecule screen and validation for enhanced CP induction; settings: CP protocol after the addition of FGF2
Procedure: All differentiations starting from E8 were dissociated into single cells using EDTA and replated at high density in E8 with the ROCK inhibitor (Tocris). Cells were typically seeded at a density of 200,000 cells/cm^2 on Matrigel coated dishes. Switching from E8 to E6 triggered differentiations (i.e. d0). Neuroectoderm (NE) formation was generated by culturing the cells in E6 with 10 nM SB and 500 nM LDN until d12. Neural Crest (NC) was first treated with 10 nM SB, 600 nM CHIR and 1 ng/ml BMP4 from d0-d2. […] Lens placode was first treated with 10 nM SB and 5 ng/ml BMP4 from d0-d2. At d2, cells were maintained in 10 nM SB with 100 ng/ml FGF2 until d12. Trigeminal placode was first treated with 10 nM SB and 5 ng/ml BMP4 from d0-d2. At d2, CHIR was added to the SB and BMP4 until d4. Finally, non-neural ectoderm (NNE) was treated with 10 nM SB, 10 nM SU5402 and 20 ng/ml BMP4 until d12.

NC(=O)c1ccc(-c2nc(-c3ccc4c(c3)OCO4)c(-c3ccccn3)[nH]2)cc1 [SB431542, 4-[4-(1,3-benzodioxol-5-yl)-5-(2-pyridinyl)-1H-imidazol-2-yl]-benzamide]
percentage of cells expressing PAX6 [1]: ~90%

Cc1c[nH]c(-c2cnc(NCCNc3ccc(C#N)cn3)nc2-c2ccc(Cl)cc2Cl)n1 [CHIR99021, 6-(2-(4-(2,4-dichlorophenyl)-5-(4-methyl-1H-imidazol-2-yl)pyrimidin-2-ylamino)ethylamino)nicotinonitrile]
cell killing during differentiation (hPSCs): effectively killed the cells
PAX3 expression in SIX1 placode cells (SIX1 placode cells): capable of triggering PAX3 expression
IC50 values against rodent GSK3β homologs (rodent GSK3β homologs): nanomolar

FGF2: activator of FGF signaling
SIX1 positive CP cells (hPSC): ~50%
Six1 positive cells [2]: 34%
